US20220008514A1, “COMBINED USE OF SELECTIVE SEROTONIN REUPTAKE INHIBITORS AND HEMATOPOIETIC GROWTH FACTORS FOR TREATING HEMATOPOIETIC DISEASES” (IMAGINE INSTITUT DES MALADIES GENETIQUES NECKER ENFANTS …, priority 2018, published 2022)

Columns and labels:
[1] = tested on: erythroid cells generated from CD34+ cord blood progenitor cells; test: Human cord blood erythroid in vitro cell culture, erythroid proliferation (FIG. 3); format: cell-based; details: serum-free medium with EPO (2 mU/ml)+IL-3 (10 ng/ml)+SCF (50 ng/ml)
Method: FIG. 3. Human in vitro experiments (effect of 5-HT combined with EPO). To determine the role played by serotonin in erythroid proliferation, inventors used a well-defined culture system that closely mimics the proliferation and differentiation of erythroid precursors in vivo. […] Erythroid cells were generated from CD34^+ cord blood progenitor cells in serum-free medium in the presence of EPO (2 mU/ml)+IL-3 (10 ng/ml)+stem cell factor (SCF; 50 ng/ml). Throughout data are mean±SEM. Unpaired t-test and Pearson linear and non-linear regressions were used when appropriate. *P<0.05, **P<0.005, ***P<0.0005.
Erythroid cells were generated from CD34^+ cord blood progenitor cells in serum-free medium in the presence of EPO (2 mU/ml)+IL-3 (10 ng/ml)+stem cell factor (SCF; 50 ng/ml) as previously described in Zermati et al., (2000) Exp. Hematol. 28:885-894.

[2] = tested on: anemia after sub-lethal irradiation in WT mice; test: Sub-lethal irradiation anemia model in WT mice, fluoxetine versus placebo (FIG. 5A, 5B); format: in vivo, mouse; details: fluoxetine for 7 days followed by sub-lethal irradiation
[3] = tested on: irradiation-induced cytopenia in WT C57BL/6 mice; test: Sub-lethal irradiation-induced cytopenia in mice: SSRI, hematopoietic growth factor or both (FIG. 7, 8, 9, Table 1); format: in vivo, mouse; details: At Day 17 from sublethal irradiation
[4] = tested on: CD71+/TER119+ population in Tph1+/- mice; test: Sub-lethal irradiation in Tph1+/- mice, fluoxetine versus placebo, erythroid precursor immunophenotyping (FIG. 5C, 5D); format: in vivo, mouse; details: starting on day 7 following sub-lethal irradiation, compared to placebo
[5] = tested on: chemotherapy induced aplasia; test: Human cohort study: effect of SSRI on chemotherapy-induced aplasia after autologous HSCT (FIG. 6); format: in vivo; details: patients at the time of autologous HSCT after myeloablative chemotherapy, versus matched controls not under SSRI
Text: FIG. 6. Human cohort study (effect of SSRI on chemotherapy induced aplasia). A reduced duration of aplasia is observed in patients treated with SSRI at the time of autologous HSCT (x), in comparison with the duration of aplasia observed for patients having not been under SSRI medication (+).
In order to evaluate the impact of treatment with SSRI on chemotherapy-induced aplasia, data of all patients benefiting from autologous hematopoietic stem cell transplantation (HSCT) from 2010 to 2017 in the hematology department of Necker Hospital, Paris, France were screened. Data from 22 patients who were under therapy with SSRI for usual indications at the time of autologous HSCT retrospectively reviewed, and compared with 66 control patients (3 controls per patient) matched for confounding factors (age, sex, disease, response of disease before therapy, conditioning regimen, date of transplant and number of CD34+ cells injected). It is observed a reduced duration of aplasia (a criterion of which, commonly described in the art, being a number of polynuclear neutrophils below 500/mm^3) in patients who were treated with SSRI at the time of autologous HSCT.

SMILES	erythroid proliferation [1]	day of rapid and significant increase in the number of reticulocytes [2]	day of normalization of Hb levels ([2]; placebo no normalization until day 22)	% of mice with Hemoglobin level ≤8 g/dl [3]	% of mice with Normal Hemoglobin level [3]	% of mice with Normal neutrophil number [3]	% of mice with Normal platelet level [3]	CD71+/TER119+ population [4]	duration (length) of aplasia [5]
Cn1c2c(c3ccccc31)CCNCC2 [PNU 22394]	significantly enhances erythroid proliferation	–	–	–	–	–	–	–	–
CNCC[C@@H](Oc1ccc(C(F)(F)F)cc1)c1ccccc1 (racemic) [fluoxetine, (RS)-N-methyl-3-phenyl-3-propan-1-amine]	–	3 days	11 days	100%	0%	20%	0%	significant increase	considerably reduced by at least two days
NCCc1c[nH]c2ccc(O)cc12 [5-HT, 5-hydroxytryptamine]	significantly enhances erythroid proliferation	–	–	–	–	–	–	–	–
